The values that follow come from US5563142A, “Diaromatic substituted compounds as anti-HIV-1 agents” (The Upjohn Company, priority 1994, dated 1996).

The test system of assay [1] is HIV-1 (MT-2 cells infected with HIV-1). As to the kind of experiment: Inhibition of HIV-induced syncytia formation in MT-2 cells. Particulars: for IC50: Human immunodeficiency virus 1, MT2, MT-2 cells infected with HIV-1, read-out: INHIBITION OF SYNCYTIA FORMATION ED50. It counts as cell-based. From the text:
This test is described in Quantitative Infectivity Assay for HIV-1 and -2., Nature 332: 469-470, 1988 as well as in AIDS RESEARCH AND HUMAN RETROVIRUSES, Vol. 4, No. 6, pages 449-455 (1988), Mary Ann Liebent, Inc., Publishers; in an article entitled "Nucleotide Dimers Suppress HIV Expression In VITRO". The results (IC50 means the concentration, in μM of drug, required to inhibit syncytia formation to the extent of 50%) of various assay(s) are combined and reported as % inhibition and IC50 (calculated).
ability of various compounds used to inhibit HIVinduced syncytia formatio
in a tissue culture assay using MT2 cells infected with HIV1. This test i
described by Nara et al., Quantitative infectivity assay for HIV1 and 2,
Nature 332, 469-470 (1988), as well as in AIDS RESEARCH AND HUMAN
RETROVIRUSES, vol. 4, No. 6, pages 449-455 (1988), Mary Ann Liebent, Inc.
Publishers, and in an article by Mariano Busso, et al., entitled
"Nucleotide Dimers Suppress HIV Expression In Vitro". The results
(ED50 means the concentration, in μM of drug, required to inhibit
syncytia formation to the extent of 50%) of various assay are combined an
reported in Table I. In comparison, the known commercial compound, AZT,
percent reductions in syncytia formation at concentrations of
approximately 1 μM and 0.5 μM, respectively.

Assay [2] has as its target T1, viral reverse transcriptase (Human immunodeficiency virus type 1 group M subtype B, UniProt P04585).
T1 construct: Viral reverse transcriptase is found in extracts from bacterial clones; made in house; host or cells: Escherichia coli (extracts of bacterial clones, by the procedure of Larder et al., EMBO J. 6:3133-3137, 1987)
In words: Viral reverse transcriptase inhibition, cell free assay. Type of assay: biochemical, human immunodeficiency virus (HIV-1). The settings on record: read-out: RT % INHIBITION (100 μM), 100 μM; poly rC or poly rG template. In short, it runs like this: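 E. coli-expressed HIV-1 RT extract was incubated with inhibitor, 10 μM [35S]-dNTP, poly rC/rG template and oligo dG/dT primer in Tris pH 8.3 with Mg2+ at 37 °C (30 min; 15 min in an alternative version). DNA incorporation was counted on filters and reported as % inhibition (at 100 μM in one version) and IC50.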

Assay [3] relates to HIV in primary human peripheral blood lymphocytes. As to the kind of experiment: Primary PBL assay: inhibition of viral replication (p24 & RNA). It counts as cell-based. Particulars: Human immunodeficiency virus 1, Lymphocyte, primary human lymphocytes infected with HIV, days three and four, read-out: PBL INHIBITION OF VIRAL REPLICATION (p24 & RNA) ED50. Here is the method:
^3 The utility of the compounds of the invention is further
infection in primary peripheral blood lymphocytes (primary PBL assay). Th
primary PBL assay offers the following advantages:
(a) The assays are performed with primary human lymphocytes. Thereby,
undesired testing of transformed cell lines is avoided in which host cell
and virus may have undergone processes of mutual adaptation. Performance
of cell culture in serum containing media closely mimics the in vivo
situation. (b) The primary PBL assay distinguishes between true antiviral
effect which is due to the drug and cytostatic/cytotoxic reactions. (c)
Viral replication is precisely followed by kinetic measurement of viral
nucleic acids and proteins. (d) Nucleic acids (total HIVRNA intra and
extracellular) and protein (secreted p24) are measured in parallel which
permits one to differentiate between the compound's effect on virus
replication and on the expression of viral proteins. This leads to
additional information regarding the efficacy of the test compound. (e)
Tolerance of the cell culture against low amounts of organic solvents als
permits the investigation of hydrophobic substances. (f) The dose of the
drug causing half maximal suppression of virus replication is determined.
(g) The screening system is standardized and automated to a high degree.
The primary PBL assay uses the following procedure:
Effects of the compounds of the invention on cell proliferation are determined by lymphocyte proliferation assays. Starting with a 100 micromolar solution, the compound is serially diluted 10 fold. One tenth of the concentration of a compound causing half maximal inhibition of cellular proliferation is employed for all subsequent testing.
Peripheral human lymphocytes are isolated by density gradient centrifugation. After stimulation by mitogen the cells are infected with a standardized preparation of HIV. Subsequently, the infected cells are cultured in the presence of the drug for four days. Individual cultures are established to measure viral replication three and four days following infection. Untreated cells and AZT-treated cells are included as controls in parallel with the drugs under investigation.
The amount of viral core protein p24 synthesized and release by the infected cells is determined in the supernatant by the capture-ELISA technique on days three and four. By comparing with a standard preparation, the amount of protein produced by the virus infected cells is quantified.
The total amount of viral RNA synthesized by the infected lymphocytes is determined by a special nucleic acid hybridization on days three and four of culture. By including a standard preparation of HIV-RNA the amount of synthesized RNA is quantified.
In addition, viability of HIV-infected cells is determined in parallel with assays for viral p24 and RNA. In order to evaluate the half maximal antiviral effect of the drug, a concentration dependency of the drug action is measured.
Numerous examples of the compounds of the invention are assayed according to this procedure. The anti-HIV activity, as measured by the inhibition of the release of core p24 protein in HIV infected human lymphocytes, is used to calculate ED50 -antiviral (the concentration required to give a 50% reduction in p24 synthesis).

Where a name gives a salt, the structure may show the parent alone. Where only a bound is given, the exact number is not on record here.

Take `CCOc1ccccc1N1CCN(C(=O)c2cc3cc(OC)ccc3[nH]2)CC1` [Example 12, 1-[5-Methoxyindolyl-2-carbonyl]-4-[2-ethoxyphenyl]piperazine]: in assay [1], the IC50 is less than 0.3 µM. Also, in assay [2], the inhibition at 100 µM was 64 to 80%. Moreover, the EC50 in assay [3] fell in the range of 5 to 10 µM.

For `CCNc1cccnc1N1CCN(C(=O)c2cc3cc(OC)c(OC)cc3[nH]2)CC1` [Example 133], in assay [1], the IC50 worked out at 1 µM. Moreover, the inhibition at 100 µM in assay [2] fell in the range of 76 to 84%. Besides, the EC50 in assay [3] is 0.01 µM.

Regarding `CC(C)Nc1cccnc1N1CCN(C(=O)c2cc3ccccc3[nH]2)CC1` [Example 17, 1-[Indolyl-2-carbonyl]-4-[3-(1-methylethylamino)-2-pyridinyl]piperazine], the IC50 in assay [1] is not above 0.3 µM. In assay [2], the inhibition at 100 µM is 96%. In assay [3], the EC50 is not above 0.01 µM.

Take `CCNc1cccnc1N1CCCN(C(=O)c2cc3ccccc3[nH]2)CC1` [Example 81, 1-[Indolyl-2-carbonyl]-4-(3-ethylamino-2-pyridinyl)-1,4-diazepine]: in assay [1], the IC50 is 0.9 µM. Besides, in assay [2], the inhibition at 100 µM lay in the range of 90 to 98%. Moreover, in assay [3], the EC50 was less than 0.001 µM.

Take `CCNc1cccnc1N1CCN(C(=O)c2cc3cc(Cl)ccc3[nH]2)CC1` [Example 22, 1-[5-Chloroindolyl-2-carbonyl]-4-[3-(ethylamino)-2-pyridinyl]piprazine]: the IC50 in assay [1] lay within 0.3 to 5 µM. Also, the inhibition at 100 µM in assay [2] was in the range of 76 to 82%. The EC50 in assay [3] was 0.01 µM.

For `CC(C)Nc1cccnc1N1CCN(C(=O)c2cc3cc(N=CN(C)C)ccc3[nH]2)CC1` [Example 85, 1-[(5N-(N',N'-Dimethylaminomethylene)aminoindolyl)carbonyl]-4-(3(1-methylethylamino)-2-pyridinyl)piperazine, methane sulfonate], the IC50 in assay [1] is less than 0.2 µM. Besides, the inhibition at 100 µM in assay [2] was 93 to 96%. Also, in assay [3], the EC50 fell in the range of 0.001 to 0.01 µM.

For `CCNc1cccnc1N1CCN(Cc2cc(C)c(O)c(C)c2)CC1` [Example 4, 1-[4-Hydroxy-3,5-dimethylbenzyl]-4-[3-(ethylamino)-2-pyridinyl]piperazine], the IC50 in assay [1] is 2.5 µM. Besides, in assay [2], the inhibition at 100 µM came out at 58%. The EC50 in assay [3] was not below 10 µM.

Regarding `CCNc1cccnc1N1CCCN(C(=O)c2cc3cc(F)ccc3[nH]2)CC1` [Example 82, 1-(5-Fluoroindolyl-2-carbonyl)-4-(3-ethylamino-2-pyridinyl)-1,4-diazepine], the IC50 in assay [1] amounted to 10 µM. In assay [2], the inhibition at 100 µM fell in the range of 87 to 93%. Further, in assay [3], the EC50 was 0.01 to 0.1 µM.

As for `CC(C)Nc1cccnc1N1CCN(C(=O)c2cc3cc(NC(=O)CN)ccc3[nH]2)CC1` [Example 86, 1-[5-(2'-Aminoacetamido)indolyl-2-carbonyl]-4-(3-(1-methylethylamino)-2-pyridinyl)piperazine hydrochloride], the IC50 in assay [1] is less than 0.2 µM. Besides, in assay [2], the inhibition at 100 µM is 78 to 96%. Further, the EC50 in assay [3] fell in the range of 0.001 to 0.01 µM.

Take `COc1ccc2[nH]c(C(=O)N3CCN(c4ncccc4NC(C)C)CC3)cc2c1` [Example 26, 1-[5-Methoxyindolyl-2-carbonyl]-4-[3-(1-methylethylamino)-2-pyridinyl]piperazine]: the IC50 in assay [1] is 0.3 to 0.5 µM. Besides, the inhibition at 100 µM in assay [2] came to 97%. Moreover, the EC50 in assay [3] was determined as 0.003 µM.

In the case of `CC(C)Nc1cccnc1N1CCN(C(=O)c2cc3cc(F)ccc3[nH]2)CC1` [Example 25, 1-[5-Fluoroindolyl-2-carbonyl]-4-[3-(1-methylethylamino)-2-pyridinyl]piperazine], the IC50 in assay [1] lay in the range of 0.3 to 0.4 µM. Further, the inhibition at 100 µM in assay [2] worked out at 96%. For the same compound, in assay [3], the EC50 stood at 0.003 µM.

With `CCNc1cccnc1N1CCN(C(=O)c2ccc3ccccc3c2)CC1` [Example 66, 1-[Naphthyl-2-carbonyl]-4-[3-(ethylamino)-2-pyridinyl]-piperazine], the IC50 in assay [1] was more than 280 µM. Further, the inhibition at 100 µM in assay [2] lay within 68 to 79%. Besides, the EC50 in assay [3] lay within 1 to 10 µM.

Consider `CCCNc1cccnc1N1CCN(Cc2cc(C)c(OC)c(C)c2)CC1` [Example 5, 1-[4-Methoxy-3,5-dimethylbenzyl]-4-[3-(propylamino)-2-pyridinyl]-piperazine], for which, in assay [1], the IC50 stood at 2 µM. Besides, the inhibition at 100 µM in assay [2] lay within 39 to 42%.

`CC(C)Nc1cc(F)ccc1N1CCN(C(=O)c2cc3ccccc3[nH]2)CC1` [Example 74, 1-[Indolyl-2-carbonyl]-4-[2-(1-methylethylamino)-4-fluorophenyl]piperazine]: the inhibition at 100 µM in assay [2] lay in the range of 82 to 84%. In assay [3], the EC50 is 0.01 to 0.1 µM.

In the case of `CC(C)Nc1cccnc1N1CCN(C(=O)c2cc3cc(OCC(=O)O)ccc3[nH]2)CC1` [Example 61, sodium salt], in assay [2], the inhibition at 100 µM worked out at 91%. Also, the EC50 in assay [3] is 1 µM.

Turning to `CC(C)Nc1cccnc1N1CCN(C(=O)c2cc3ccc(N(C)C)cc3[nH]2)CC1` [Example 95, 1-[6-(N,N-Dimethylamino)indolyl-2-carbonyl]-4-[3-(1-methylethylamino)-2-pyridinyl]piperazine], the inhibition at 100 µM in assay [2] was in the range of 81 to 93%. For the same compound, in assay [3], the EC50 is less than 0.001 µM.

With `CCNc1cccnc1N1CCN(C(=O)c2cc3cc(OC)ccc3[nH]2)CC1` [Example 16A, 1-[5-Methoxyindolyl-2-carbonyl]-4-[3-(ethylamino)-2-pyridinyl]-piperazine, hydrochloride], the IC50 in assay [1] is less than 0.2 µM. In addition, in assay [3], the EC50 was determined as 0.001 µM.

For `COc1cccc2[nH]c(C(=O)N3CCN(c4ncccc4NC(C)C)CC3)cc12` [Example 88, 1-[4-Methoxyindolyl-2-carbonyl]-4-[3-(1-methylethylamino)-2-pyridinyl]piperazine], the inhibition at 100 µM in assay [2] fell in the range of 56 to 88%. In addition, the EC50 in assay [3] amounted to 0.1 µM.

Regarding `CCC(C)Nc1cccnc1N1CCN(C(=O)c2cc3ccccc3[nH]2)CC1` (stereo not drawn) [Example 99], in assay [2], the inhibition at 100 µM was 93 to 95%. Also, the EC50 in assay [3] fell in the range of 0.001 to 0.01 µM.

Turning to `Cc1cn([C@H]2C[C@H](N=[N+]=[N-])[C@@H](CO)O2)c(=O)[nH]c1=O` [AZT, 3'-azido-3'-deoxy-thymidine, reference compound], in assay [1] (Human immunodeficiency virus 1, MT2, read-out: concentration giving 50 percent reduction in syncytia formation), the EC50 was approximately 0.5 µM. Moreover, the IC100 in assay [1] (Human immunodeficiency virus 1, MT2, read-out: concentration giving 100 percent reduction in syncytia formation) is approximately 1 µM.

For `CC(C)Nc1cccnc1N(C)CCN(C)C(=O)c1cc2ccccc2[nH]1` [Example 52, N,N'-Dimethyl-N-(indolyl-2-carbonyl)-N'-(3-(1-methylethylamino)pyrid-2-yl)ethylenediamine], in assay [2], the inhibition at 100 µM fell in the range of 89 to 94%. Also, the EC50 in assay [3] was in the range of 0.1 to 1 µM.

As usually defined, the inhibition is the percentage by which the read-out fell short of the control.
